For one assay, the system named is APP695. The assay can be described thus: Western blot (antibody 6E10) of fibroblasts grown with protease inhibitors. In kind it is cell-based, Göttingen minipig. As to the method: A Western blot using a commercial anti-APP antibody (6E10), […], was performed according to the manufacturer's recommendations. The Western blot was performed on extracts from fibroblast cells of a transgenic pig (lanes 1 and 2) and on extracts from fibroblast cells of a wt pig (lanes 3 and 4), see FIG. 10. In lane 1 the fibroblasts have been treated with the protease inhibitor ALLN, whereas the fibroblasts of lane 2 have not received treatment. […] In contrast, the lower molecular weight products are not present in similar amounts as in lane 2. Lanes 3 and 4 contain extracts of fibroblasts from wt pigs and no effect of ALLN treatment is evident in comparison to the extracts of transgenic pigs.
a) Non-transgenic donor fibroblasts (74114 cells) and fibroblasts from transgenic minipiglet No. 47 were grown to 80% confluence in a 75 cm2 flask. The cells from each flask were resuspended in 24 ml medium and transferred to a 6-well plate (TPP, Schwitzerland) with 2.5 ml of the cell suspension in each well. Medium was changed the following day with 2 ml fresh medium containing the chemical at the indicated concentration were added to the wells of both plates: well No. 1, 5 μM Lactacystin; well No. 2, 20 μM Leupeptin; well No. 3, 20 μl DMSO; well No. 4, 20 μM ALLN; well No. 5, 2.5 mM NH4Cl. After 6 hrs incubation the cells from each well were harvested and transferred to an 1.5 ml Eppendorf tube. 30 μl ddH20, 2 μl reducing agent and 8 μl loading buffer (Fermentas) were added, the tubes were placed in boiling water for 5 min. and spun at full speed for 1 min. in an Eppendorf centrifuge. 15 μl of each sample were loaded on a 4-15% polyacrylamid gel (BioRad), run at 45 mAmp for 90 min. Transfer to PVDF membrane (GE Healthcare) was done at 75 volt for 30 min., and the membrane was stained with anti-human APP monoclonal antibody 6E10 (SIGNET) at dilution 1:1000, and as secondary antibody polyclonal goat anti-mouse immunoglobulines/HRP (Dako Cytomation) at dilution 1:2000. b) Extraction of protein from brain tissue was done with 100-200 mg flash frozen cortical tissue homogenized in a tissue-grinder with 3 ml lysis buffer (Tris-HCl 50 mM, EDTA 10 mM, SDS 1%, Triton X-100 0.5%, ⅓ Protease Inhibitor Cocktail Tablet (Roche), pH 8.0). The solution was transferred to an Eppendorf tube (1 ml), centrifuged at 12,000 rpm for 2 min at 4° C. and supernatant transferred to a new tube. After vortexing the tube was frozen in dry ice for 3 min, thawed at 37° C. for 3 min, and this freeze/thaw step was repeated 3 times. Finally, the solution was centrifuged at 14,000 rpm (4° C.) for 10 min, the pellet discarded and the protein concentration of the supernatant determined. 8 μg protein extract was loaded in each lane of the polyacrylamid gel. Western blotting was done as described above. […]

A further assay deals with T1, β-secretase (Mus musculus, UniProt P56818).
T1 construct: host or cells: brain of APP transgenic mice (in vivo, oral dosing)
To be noted: oral administration, APP transgenic mice; cited from earlier work.

In the next assay the test system is PDAPP transgenic mouse. To be noted: subcutaneous immunization, 100 ug in complete Freund adjuvant; cited from earlier work.

This is an account of results in patent US8389794B2, “Transgenic pig as a model of Alzheimer's disease” (Aarhus Universitet, priority 2007, dated 2013).

Where a SMILES comes first, the peptide text is derived from it. [ ]: non-standard residue; d: D form. Nle = CCCC[C@H](N)C(=O)O

T1 sequence (P56818 46-501): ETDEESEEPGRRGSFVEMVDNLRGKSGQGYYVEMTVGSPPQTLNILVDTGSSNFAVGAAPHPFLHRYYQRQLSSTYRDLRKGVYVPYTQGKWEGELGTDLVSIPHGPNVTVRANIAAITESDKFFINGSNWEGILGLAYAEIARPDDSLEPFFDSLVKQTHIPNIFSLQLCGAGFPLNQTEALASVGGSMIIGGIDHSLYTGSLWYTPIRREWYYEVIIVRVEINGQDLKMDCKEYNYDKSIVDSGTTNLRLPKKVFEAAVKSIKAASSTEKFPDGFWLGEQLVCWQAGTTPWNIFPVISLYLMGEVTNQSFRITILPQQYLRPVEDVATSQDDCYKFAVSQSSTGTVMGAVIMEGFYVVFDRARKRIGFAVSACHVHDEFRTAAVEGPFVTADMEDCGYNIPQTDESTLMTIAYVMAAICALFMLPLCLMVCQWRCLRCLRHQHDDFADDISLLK

As to `CCCC[C@@H](C=O)NC(=O)[C@H](CC(C)C)NC(=O)[C@H](CC(C)C)NC(C)=O` [ALLN] (Ac-Leu-Leu-[Nle]-aldehyde), the “difference in intensity of the APP695 bands, transgenic vs non-transgenic fibroblasts” value (“difference … vs non-transgenic fibroblasts” for short) in the assay with APP695 (20 μM ALLN in medium, fibroblasts of transgenic piglet No. 47 vs donor cells 74114) is “becomes more pronounced”. Besides, the “bands of lower molecular weight than mutated APP” value in the assay with APP695 (ALLN treated fibroblasts of transgenic pig vs untreated) is on record as “increased in intensity”. For the molecule `CCNc1cc(C(=O)N[C@@H](Cc2ccccc2)[C@H](O)CNCc2cccc(C(F)(F)F)c2)c(F)c(N2CCCCS2(=O)=O)c1` [GSK188909], the “brain Abeta” value at β-secretase is listed as “significant lowering”. As for `Cl.N` [ammonium chloride], the “difference … vs non-transgenic fibroblasts” value in the assay with APP695 (ammonium chloride in medium (2.5 mM NH4Cl per method), data not shown) is reported as “no such effect”. Regarding `CC(=O)N[C@@H](CC(C)C)C(=O)N[C@@H](CC(C)C)C(=O)N[C@H](C=O)CCCNC(=N)N` [leupeptin], the “difference … vs non-transgenic fibroblasts” value in the assay with APP695 (leupeptin in medium (20 μM per method), data not shown) is “no such effect”. As to “Abeta 1-42 antigen: Abeta 1-42 antigen in complete Freund adjuvant for active immunization”, the “accumulation of plaques in the brain” value in the assay on PDAPP transgenic mouse is on record as “reduces the accumulation of plaques”.
